Experimental data: patent US20200361871A1 (Enterprise Therapeutics Ltd., priority 2018, published 2020)

Target: human TMEM16A (TMEM16Aabc variant) (Homo sapiens, UniProt Q5XXA6, DEL476-501, form not given)
Experiment: Automated whole-cell patch clamp (Qpatch) TMEM16A potentiator assay in FRT cells stably expressing human TMEM16A
Format: cell-based
Settings: for % Potentiation @ 3.33 μM Avg: 3.33 μM solution of test compound, percentage increase of baseline TMEM16A current; for EC50: calculated EC50, Qpatch TMEM16A current at +70 mV
Method in brief: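 Potentiation was read as the rise in peak +70 mV current over baseline (%), from cumulative 5-min additions of compound. Recordings used whole-cell automated patch of FRT cells stably carrying human TMEM16Aabc, with pipette Ca2+ buffered to give ~20% maximal current. EC50 and efficacy came from concentration-response fits.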

human TMEM16A (TMEM16Aabc variant), sequence (Q5XXA6 with tags, fused parts or gaps DEL476-501): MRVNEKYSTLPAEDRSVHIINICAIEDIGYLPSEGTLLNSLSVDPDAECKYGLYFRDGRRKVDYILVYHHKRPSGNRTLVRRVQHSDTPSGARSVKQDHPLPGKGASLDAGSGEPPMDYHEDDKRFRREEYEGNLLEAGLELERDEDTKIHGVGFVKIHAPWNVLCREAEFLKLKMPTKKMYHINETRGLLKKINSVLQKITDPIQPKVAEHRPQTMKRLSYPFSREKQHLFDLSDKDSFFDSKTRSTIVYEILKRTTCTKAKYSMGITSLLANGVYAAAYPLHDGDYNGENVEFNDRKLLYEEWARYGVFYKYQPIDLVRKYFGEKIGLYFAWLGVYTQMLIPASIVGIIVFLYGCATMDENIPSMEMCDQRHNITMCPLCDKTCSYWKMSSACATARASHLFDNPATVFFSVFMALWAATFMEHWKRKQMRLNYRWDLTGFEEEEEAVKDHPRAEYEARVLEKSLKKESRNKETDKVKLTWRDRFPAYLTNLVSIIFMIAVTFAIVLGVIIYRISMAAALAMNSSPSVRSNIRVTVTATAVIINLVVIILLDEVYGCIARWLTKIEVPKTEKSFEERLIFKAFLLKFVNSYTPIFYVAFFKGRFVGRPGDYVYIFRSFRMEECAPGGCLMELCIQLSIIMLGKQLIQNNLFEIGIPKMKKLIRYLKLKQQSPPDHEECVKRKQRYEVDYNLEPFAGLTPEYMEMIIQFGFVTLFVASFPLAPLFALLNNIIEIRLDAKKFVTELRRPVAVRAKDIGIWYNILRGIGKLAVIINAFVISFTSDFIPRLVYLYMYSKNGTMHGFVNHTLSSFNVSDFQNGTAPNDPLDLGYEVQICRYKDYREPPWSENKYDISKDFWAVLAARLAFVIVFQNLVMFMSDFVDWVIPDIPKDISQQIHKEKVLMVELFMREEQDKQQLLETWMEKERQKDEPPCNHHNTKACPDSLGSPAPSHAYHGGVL

Row | Compound | % Potentiation @ 3.33 μM Avg [%] | EC50 [nM]
1 | N#CC1(NC(=O)c2cc(NC(=O)Cc3cc(F)ccc3Cl)ccn2)CC1 [Example 23.2, 4-[[2-(2-Chloro-5-fluoro-phenyl)acetyl]amino]-N-(1-cyanocyclopropyl)pyridine-2-carboxamide] | 87 | 
2 | CC(C)(C)NC(=O)c1cc(NC(=O)C2Cc3ccccc3C2)ccn1 [Example 23.3, N-tert-Butyl-4-(indane-2-carbonylamino)pyridine-2-carboxamide] | 59 | 470
3 | CC(C)(C)NC(=O)c1cc(NC(=O)Cc2ccccc2OC(F)F)ccn1 [Example 23.4, N-tert-Butyl-4-[[2-[2-(difluoromethoxy)phenyl]acetyl]amino]pyridine-2-carboxamide] | 115 | 
4 | CC(C)(C)NC(=O)c1cc(NC(=O)Cc2ccccc2C(F)F)ccn1 [Example 23.5, N-tert-Butyl-4-[[2-[2-(difluoromethyl)phenyl]acetyl]amino]pyridine-2-carboxamide] | 110 | 
5 | CC(C)(C)NC(=O)c1cc(NC(=O)Cc2ccc(F)c(F)c2)ccn1 [Example 23.6, N-tert-Butyl-4-[[2-(3,4-difluorophenyl)acetyl]amino]pyridine-2-carboxamide] | 108 | 
6 | CC(C)(C)NC(=O)c1cc(NC(=O)Cc2ccccc2C(F)(F)F)ccn1 [Example 23.12, N-tert-Butyl-4-[[2-[2-(trifluoromethyl)phenyl]acetyl]amino]pyridine-2-carboxamide] | 197 | 330
7 | CC(C)(C)NC(=O)c1cc(NC(=O)Cc2ccccc2Br)ccn1 [Example 23.13, 4-[[2-(2-bromophenyl)acetyl]amino]-N-tert-butyl-pyridine-2-carboxamide] | 169 | 570
8 | N#CC1(NC(=O)c2cc(NC(=O)Cc3ccccc3Cl)ccn2)CCOCC1 [Example 23.15, 4-[[2-(2-Chlorophenyl)acetyl]amino]-N-(4-cyanotetrahydropyran-4-yl)pyridine-2-carboxamide] | 147 | 1190
9 | N#CC1(NC(=O)c2cc(NC(=O)Cc3ccc4ncccc4c3)ccn2)CCOCC1 [Example 23.16, N-(4-Cyanotetrahydropyran-4-yl)-4-[[2-(6-quinolyl)acetyl]amino]pyridine-2-carboxamide] | 68 | 1400
10 | CC(C)(C)c1ccc(O)c(CC(=O)Nc2ccnc(C(=O)NC34CC(C3)C4)c2)c1 [Example 25, N-(3-Bicyclo[1.1.1]pentanyl)-4-[[2-(5-tert-butyl-2-hydroxy-phenyl)acetyl]amino] pyridine-2-carboxamide] | 330 | 370
11 | CC(C)(C)c1ccc(O)c(CC(=O)Nc2ccnc(C(=O)NC3(C#N)CCOCC3)c2)c1 [Example 25.1, 4-[[2-(5-tert-Butyl-2-hydroxy-phenyl)acetyl]amino]-N-(4-cyanotetrahydropyran-4-yl)pyridine-2-carboxamide] | 393 | 140
12 | CC(C)(C)NC(=O)c1cc(NC(=O)Cc2cc(Cl)c(CN3CCC(F)(F)C3)cc2O)ccn1 [Example 27.3, N-tert-Butyl-4-[[2-[5-chloro-4-[(3,3-difluoropyrrolidin-1-yl)methyl]-2-hydroxy-phenyl]acetyl]amino]pyridine-2-carboxamide] | 166 | 290
13 | CC(C)(C)NC(=O)c1cc(NC(=O)Cc2cc(Cl)ccc2O)c(F)cn1 [Example 28, N-tert-butyl-4-[[2-(5-chloro-2-hydroxy-phenyl)acetyl]amino]-5-fluoro-pyridine-2-carboxamide] | 318 | 400
14 | N#CC1(NC(=O)c2cc(NC(=O)Cc3ccccc3Cl)ccn2)CCC1 [Example 30, 4-[[2-(2-Chlorophenyl)acetyl]amino]-N-(1-cyanocyclobutyl)pyridine-2-carboxamide] | 113 | 1220
15 | C#CC(C)(C)NC(=O)c1cc(NC(=O)Cc2ccccc2Cl)ccn1 [Example 30.1, 4-[[2-(2-Chlorophenyl)acetyl]amino]-N-(1,1-dimethylprop-2-ynyl)pyridine-2-carboxamide] | 245 | 140
16 | O=C(Cc1ccccc1Cl)Nc1ccnc(C(=O)NC23CCC(F)(C2)C3)c1 [Example 30.2, 4-[[2-(2-Chlorophenyl)acetyl]amino]-N-(4-fluoro-1-bicyclo[2.1.1]hexanyl)pyridine-2-carboxamide] | 221 | 180
17 | CC(C)(NC(=O)c1cc(NC(=O)Cc2ccccc2Cl)ccn1)C1CC1 [Example 30.3, 4-[[2-(2-Chlorophenyl)acetyl]amino]-N-(1-cyclopropyl-1-methyl-ethyl)pyridine-2-carboxamide] | 100 | 250
18 | CC12CC(NC(=O)c3cc(NC(=O)Cc4ccccc4Cl)ccn3)(C1)C2 [Example 30.4, 4-[[2-(2-Chlorophenyl)acetyl]amino]-N-(1-methyl-3-bicyclo[1.1.1]pentanyl)pyridine-2-carboxamide] | 95 | 750
19 | N#CC1(NC(=O)c2cc(NC(=O)Cc3ccccc3Cl)ccn2)CC1 [Example 30.7, 4-[[2-(2-Chlorophenyl)acetyl]amino]-N-(1-cyanocyclopropyl)pyridine-2-carboxamide] | 124 | 340
20 | CC1(NC(=O)c2cc(NC(=O)Cc3ccccc3Cl)ccn2)CC1 [Example 30.8, 4-[[2-(2-Chlorophenyl)acetyl]amino]-N-(1-methylcyclopropyl)pyridine-2-carboxamide] | 121 | 700
21 | O=C(Cc1ccccc1Cl)Nc1ccnc(C(=O)NC23CC(F)(C2)C3)c1 [Example 30.9, 4-[[2-(2-Chlorophenyl)acetyl]amino]-N-(3-fluoro-1-bicyclo[1.1.1]pentanyl)pyridine-2-carboxamide] | 100 | 470

The next lines start with results.

Row | % Potentiation @ 3.33 μM Avg [%] | Compound | EC50 [nM]
22 | 98 | CC(C)(C)NC(=O)c1cc(NC(=O)Cc2cc(F)cc(F)c2)ccn1 [Example 23.7, N-tert-Butyl-4-[[2-(3,5-difluorophenyl)acetyl]amino]pyridine-2-carboxamide] | 
23 | 122 | CC(C)(C)NC(=O)c1cc(NC(=O)Cc2cccc(F)c2F)ccn1 [Example 23.8, N-tert-Butyl-4-[[2-(2,3-difluorophenyl)acetyl]amino]pyridine-2-carboxamide] | 
24 | 47 | O=C(Cc1ccccc1Cl)Nc1ccnc(C(=O)NC2CCOCC2)c1 [Example 23.9, 4-[[2-(2-Chlorophenyl)acetyl]amino]-N-tetrahydropyran-4-yl-pyridine-2-carboxamide] | 
25 | 101 | N#CC1(NC(=O)c2cc(NC(=O)Cc3ccc4ncccc4c3)ccn2)CCC1 [Example 23.11, N-(1-Cyanocyclobutyl)-4-[[2-(6-quinolyl)acetyl]amino]pyridine-2-carboxamide] | 
26 | 33 | CC(C)(C)NC(=O)c1cc(NC(=O)Cc2ccccc2C#N)ccn1 [Example 23.14, N-tert-Butyl-4-[[2-(2-cyanophenyl)acetyl]amino]pyridine-2-carboxamide] | 
27 | 68 | COc1ccc(Cl)c(CC(=O)Nc2ccnc(C(=O)NC3(C#N)CC3)c2)c1 [Example 24, 4-[[2-(2-Chloro-5-methoxy-phenyl)acetyl]amino]-N-(1-cyanocyclopropyl)pyridine-2-carboxamide] | 
28 | 108 | CC(C)(C)NC(=O)c1cc(NC(=O)Cc2cc(-c3ccccc3)ccc2O)ccn1 [Example 26, N-tert-Butyl-4-[[2-(2-hydroxy-5-phenyl-phenyl)acetyl]amino]pyridine-2-carboxamide] | 
29 | 90 | CC(C)(C)NC(=O)c1cc(NC(=O)Cc2cc(Cl)c(CN3CCCC3)cc2O)ccn1 [Example 27, N-tert-Butyl-4-[[2-[5-chloro-2-hydroxy-4-(pyrrolidin-1-ylmethyl)phenyl]acetyl]amino]pyridine-2-carboxamide] | 
30 | 52 | CC(C)(C)NCc1cc(O)c(CC(=O)Nc2ccnc(C(=O)NC(C)(C)C)c2)cc1Cl [Example 27.1, N-tert-Butyl-4-[[2-[4-[(tert-butylamino)methyl]-5-chloro-2-hydroxy-phenyl]acetyl]amino]pyridine-2-carboxamide] | 
31 | 300 | CC(C)(C)NC(=O)c1cc(NC(=O)Cc2cc(Cl)c(CN3CCOCC3)cc2O)ccn1 [Example 27.2, N-tert-Butyl-4-[[2-[5-chloro-2-hydroxy-4-(morpholinomethyl)phenyl]acetyl]amino]pyridine-2-carboxamide] | 
32 | 68 | CC(C)(C)NC(=O)c1nccc(NC(=O)Cc2cc(Cl)ccc2O)c1F [Example 28.1, N-tert-Butyl-4-[[2-(5-chloro-2-hydroxy-phenyl)acetyl]amino]-3-fluoro-pyridine-2-carboxamide] | 
33 | 221 | CC(C)(C#N)NC(=O)c1cc(NC(=O)Cc2ccccc2Cl)ccn1 [Example 30.3a, 4-[[2-(2-Chlorophenyl)acetyl]amino]-N-(1-cyano-1-methyl-ethyl)pyridine-2-carboxamide] | 
34 | 63 | N#CC12CC(NC(=O)c3cc(NC(=O)Cc4ccccc4Cl)ccn3)(C1)C2 [Example 30.5, 4-[[2-(2-Chlorophenyl)acetyl]amino]-N-(1-cyano-3-bicyclo[1.1.1]pentanyl) pyridine-2-carboxamide] | 
35 | 80 | O=C(Cc1ccccc1Cl)Nc1ccnc(C(=O)NC2CC2(F)F)c1 (centres unmarked) [Example 30.6, 4-[[2-(2-Chlorophenyl)acetyl]amino]-N-(2,2-difluorocyclopropyl)pyridine-2-carboxamide] | 
36 | 265 | CC(C)(CF)NC(=O)c1cc(NC(=O)Cc2ccccc2Cl)ccn1 [Example 30.10, 4-[[2-(2-Chlorophenyl)acetyl]amino]-N-(2-fluoro-1,1-dimethyl-ethyl)pyridine-2-carboxamide] | 
